Data from ChEMBL document CHEMBL3885881, “DrugMatrix”.

Organism: Rattus norvegicus
Assay: DrugMatrix - Regimen: Daily Repeat
Assay type: toxicity, organism-based, Sprague-Dawley
Set-up: regimen Daily Repeat, gender Male, age 6-8 weeks
Settings: in vivo, po, 430 mg/kg, route oral GAVAGE, dose level High, vehicle .5 % CMC; for ABSOLUTE BASOPHIL / ABSOLUTE EOSINOPHIL / ABSOLUTE LYMPHOCYTE / ABSOLUTE MONOCYTE / ABSOLUTE SEGMENTED NEUTROPHIL / BASOPHIL / EOSINOPHIL / ERYTHROCYTE COUNT / HEMATOCRIT / HEMOGLOBIN / LEUKOCYTE COUNT / LYMPHOCYTE / MEAN CORPUSCULAR HEMOGLOBIN / MEAN CORPUSCULAR HEMOGLOBIN CONCENTRATION / MEAN CORPUSCULAR VOLUME / MONOCYTE / NEUTROPHIL / NUCLEATED RED BLOOD CELLS / PLATELET COUNT: tissue Blood; for ALANINE AMINOTRANSFERASE / ALBUMIN / ALKALINE PHOSPHATASE / ASPARTATE AMINOTRANSFERASE / BLOOD UREA NITROGEN / CARBON DIOXIDE / CHLORIDE / CHOLESTEROL / CREATININE / GLUCOSE / LACTATE DEHYDROGENASE / LIPASE / PHOSPHORUS / POTASSIUM / SODIUM / TOTAL BILIRUBIN / TOTAL PROTEIN / URIC ACID: tissue Plasma

ClC(Cl)Br [BROMODICHLOROMETHANE]
ABSOLUTE BASOPHIL (72 h, time 3 day): 0 CELLS/uL
ABSOLUTE EOSINOPHIL (72 h, time 3 day): 216.67 CELLS/uL
ABSOLUTE LYMPHOCYTE (72 h, time 3 day): 11508.33 CELLS/uL
ABSOLUTE MONOCYTE (72 h, time 3 day): 948.33 CELLS/uL
ABSOLUTE SEGMENTED NEUTROPHIL (72 h, time 3 day): 1326.67 CELLS/uL
BASOPHIL (72 h, time 3 day): 0%
EOSINOPHIL (72 h, time 3 day): 1.33%
ERYTHROCYTE COUNT (72 h, time 3 day): 6.13 x10E6/uL
HEMATOCRIT (72 h, time 3 day): 37.07%
HEMOGLOBIN (72 h, time 3 day): 13.87 G/DL
LEUKOCYTE COUNT (72 h, time 3 day): 14 x10E3/uL
LYMPHOCYTE (72 h, time 3 day): 82.33%
MEAN CORPUSCULAR HEMOGLOBIN (72 h, time 3 day): 22.63 pg
MEAN CORPUSCULAR HEMOGLOBIN CONCENTRATION (72 h, time 3 day): 37.4 G/DL
MEAN CORPUSCULAR VOLUME (72 h, time 3 day): 60.47 fL
MONOCYTE (72 h, time 3 day): 6.67%
NEUTROPHIL (72 h, time 3 day): 9.67%
NUCLEATED RED BLOOD CELLS (72 h, time 3 day): 0 /100WBC
PLATELET COUNT (72 h, time 3 day): 1186 x10E3/uL
ALANINE AMINOTRANSFERASE (72 h, time 3 day): 73.33 u/L
ALBUMIN (72 h, time 3 day): 4.57 G/DL
ALKALINE PHOSPHATASE (72 h, time 3 day): 459.67 u/L
ASPARTATE AMINOTRANSFERASE (72 h, time 3 day): 106 u/L
BLOOD UREA NITROGEN (72 h, time 3 day): 18.67 mg/dL
CARBON DIOXIDE (72 h, time 3 day): 23 mmol/L
CHLORIDE (72 h, time 3 day): 104.67 MEQ/L
CHOLESTEROL (72 h, time 3 day): 72 mg/dL
CREATININE (72 h, time 3 day): 0.22 mg/dL
GLUCOSE (72 h, time 3 day): 124.33 mg/dL
LACTATE DEHYDROGENASE (72 h, time 3 day): 655 u/L
LIPASE (72 h, time 3 day): 9 u/L
PHOSPHORUS (72 h, time 3 day): 12.47 mg/dL
POTASSIUM (72 h, time 3 day): 6.06 MEQ/L
SODIUM (72 h, time 3 day): 141.67 MEQ/L
TOTAL BILIRUBIN (72 h, time 3 day): 0.27 mg/dL
TOTAL PROTEIN (72 h, time 3 day): 5.93 G/DL
URIC ACID (72 h, time 3 day): 1.9 mg/dL
ABSOLUTE BASOPHIL (120 h, time 5 day): 0 CELLS/uL
ABSOLUTE EOSINOPHIL (120 h, time 5 day): 20 CELLS/uL
ABSOLUTE LYMPHOCYTE (120 h, time 5 day): 7894 CELLS/uL
ABSOLUTE MONOCYTE (120 h, time 5 day): 268.67 CELLS/uL
ABSOLUTE SEGMENTED NEUTROPHIL (120 h, time 5 day): 750.67 CELLS/uL
BASOPHIL (120 h, time 5 day): 0%
EOSINOPHIL (120 h, time 5 day): 0.33%
ERYTHROCYTE COUNT (120 h, time 5 day): 6.18 x10E6/uL
HEMATOCRIT (120 h, time 5 day): 35.9%
HEMOGLOBIN (120 h, time 5 day): 13 G/DL
LEUKOCYTE COUNT (120 h, time 5 day): 8.93 x10E3/uL
LYMPHOCYTE (120 h, time 5 day): 88.67%
MEAN CORPUSCULAR HEMOGLOBIN (120 h, time 5 day): 21.07 pg
MEAN CORPUSCULAR HEMOGLOBIN CONCENTRATION (120 h, time 5 day): 36.23 G/DL
MEAN CORPUSCULAR VOLUME (120 h, time 5 day): 58.1 fL
MONOCYTE (120 h, time 5 day): 2.67%
NEUTROPHIL (120 h, time 5 day): 8.33%
NUCLEATED RED BLOOD CELLS (120 h, time 5 day): 0 /100WBC
PLATELET COUNT (120 h, time 5 day): 970.33 x10E3/uL
ALANINE AMINOTRANSFERASE (120 h, time 5 day): 85 u/L
ALBUMIN (120 h, time 5 day): 4.6 G/DL
ALKALINE PHOSPHATASE (120 h, time 5 day): 399.33 u/L
ASPARTATE AMINOTRANSFERASE (120 h, time 5 day): 105 u/L
BLOOD UREA NITROGEN (120 h, time 5 day): 12.67 mg/dL
CARBON DIOXIDE (120 h, time 5 day): 33.67 mmol/L
CHLORIDE (120 h, time 5 day): 103.67 MEQ/L
CHOLESTEROL (120 h, time 5 day): 63.33 mg/dL
CREATININE (120 h, time 5 day): 0.21 mg/dL
GLUCOSE (120 h, time 5 day): 116 mg/dL
LACTATE DEHYDROGENASE (120 h, time 5 day): 107.67 u/L
LIPASE (120 h, time 5 day): 9.33 u/L
PHOSPHORUS (120 h, time 5 day): 10.87 mg/dL
POTASSIUM (120 h, time 5 day): 5.17 MEQ/L
SODIUM (120 h, time 5 day): 146.4 MEQ/L
TOTAL BILIRUBIN (120 h, time 5 day): 0.23 mg/dL
TOTAL PROTEIN (120 h, time 5 day): 6.17 G/DL
URIC ACID (120 h, time 5 day): 0.8 mg/dL
ABSOLUTE BASOPHIL ([…], time 14 day): 0 CELLS/uL
ABSOLUTE EOSINOPHIL ([…], time 14 day): 120.4 CELLS/uL
ABSOLUTE LYMPHOCYTE ([…], time 14 day): 11064.6 CELLS/uL
ABSOLUTE MONOCYTE ([…], time 14 day): 372 CELLS/uL
ABSOLUTE SEGMENTED NEUTROPHIL ([…], time 14 day): 2303 CELLS/uL
BASOPHIL ([…], time 14 day): 0%
EOSINOPHIL ([…], time 14 day): 0.8%
ERYTHROCYTE COUNT ([…], time 14 day): 6.18 x10E6/uL
HEMATOCRIT ([…], time 14 day): 34.92%
HEMOGLOBIN ([…], time 14 day): 12.94 G/DL
LEUKOCYTE COUNT ([…], time 14 day): 13.86 x10E3/uL
LYMPHOCYTE ([…], time 14 day): 80.8%
MEAN CORPUSCULAR HEMOGLOBIN ([…], time 14 day): 20.96 pg
MEAN CORPUSCULAR HEMOGLOBIN CONCENTRATION ([…], time 14 day): 37.08 G/DL
MEAN CORPUSCULAR VOLUME ([…], time 14 day): 56.58 fL
MONOCYTE ([…], time 14 day): 2.6%
NEUTROPHIL ([…], time 14 day): 15.8%
NUCLEATED RED BLOOD CELLS ([…], time 14 day): 0 /100WBC
PLATELET COUNT ([…], time 14 day): 862.2 x10E3/uL
ALANINE AMINOTRANSFERASE ([…], time 14 day): 65.6 u/L
ALBUMIN ([…], time 14 day): 4.56 G/DL
ALKALINE PHOSPHATASE ([…], time 14 day): 422.2 u/L
ASPARTATE AMINOTRANSFERASE ([…], time 14 day): 104.6 u/L
BLOOD UREA NITROGEN ([…], time 14 day): 19.6 mg/dL
CARBON DIOXIDE ([…], time 14 day): 25.8 mmol/L
CHLORIDE ([…], time 14 day): 106.8 MEQ/L
CHOLESTEROL ([…], time 14 day): 71.4 mg/dL
CREATININE ([…], time 14 day): 0.25 mg/dL
GLUCOSE ([…], time 14 day): 140.6 mg/dL
LACTATE DEHYDROGENASE ([…], time 14 day): 190 u/L
LIPASE ([…], time 14 day): 9.2 u/L
PHOSPHORUS ([…], time 14 day): 10.96 mg/dL
POTASSIUM ([…], time 14 day): 5.79 MEQ/L
SODIUM ([…], time 14 day): 145.9 MEQ/L
TOTAL BILIRUBIN ([…], time 14 day): 0.16 mg/dL
TOTAL PROTEIN ([…], time 14 day): 6.14 G/DL
URIC ACID ([…], time 14 day): 1.44 mg/dL
